Test results published in patent US20230190689A1, “METHODS AND COMPOSITIONS FOR INDUCING BROWN ADIPOGENESIS” (ENERGESIS PHARMACEUTICALS, INC., priority 2020, published 2023).

B1: BMP7: recombinant human BMP7 (rhBMP7), R&D Systems, reference agent (positive control) (protein, UniProt P18075 293-431, looked up)
Bone morphogenetic protein 7: STGSKQRSQNRSKTPKNQEALRMANVAENSSSDQRQACKKHELYVSFRDLGWQDWIIAPEGYAAYYCEGECAFPLNSYMNATNHAIVQTLVHFINPETVPKPCCAPTQLNAISVLYFDDSSNVILKKYRNMVVRACGCH

Experiments:
[1] = tested on: CD34+ brown adipocyte progenitor cells; experiment: Multiplexed TaqMan real-time PCR of UCP1 and PPARγ2 mRNA (normalized to cyclophilin A) to quantify differentiation of CD34+ cells into brown adipocytes; type: cell-based, human; conditions: for differentiation of brown adipocyte progenitor cells into brown adipocytes, as indicated by expression of UCP1 and PPARγ2: in vitro, first screen at 10 μM, actives retested at 1 nM to 50 μM
From the text: A robust method, previously disclosed, was used for detection of CD34+ cell differentiation into brown adipocytes by simultaneously quantifying mRNA species corresponding to the brown adipocyte marker UCP1, the adipocyte marker PPARγ2, and the “housekeeping” gene cyclophilin A which was used as the internal control.
This method permits analysis of a large number of samples to identify agents that enhance the differentiation of CD34+ cells into brown adipocytes. When differentiated into brown adipocytes, CD34+ cells express much higher levels of UCP1 and PPARγ2 mRNA for a given level of cyclophilin A. UCP1 and PPARγ2 mRNA levels normalized to cyclophilin A mRNA levels give an indication of the level of differentiation of the CD34+ cells into brown adipocytes, independent of the total number of cells in the sample.
Quantification of UCP1, PPARγ2 and cyclophilin A mRNA by multiplexed TaqMan real-time PCR was thus used to quantify differentiation of the CD34+ cells into brown adipocytes.
UCP1 is the key protein in brown adipocytes responsible for uncoupled respiration and is also highly specific for brown adipocyte differentiation. It is expressed exclusively by fully differentiated brown adipocytes and not by the CD34+ progenitor cells. We used a real-time semi-quantitative RT PCR-based assay for detection of UCP1 expression, in order to screen for brown adipocyte recruiters. […] The assay has the added advantage of allowing light microscopic visualization of the distinct morphological changes accompanying differentiation into brown adipocytes. This serves as further confirmation of differentiation.
(§1) Cells were seeded at 10,000 per cm^2 (48-well tissue culture, Chemglass #CLS-3500-048), cultured until confluency (1-4 days) at 37° C. in Endothelial cell growth medium-2 (EGM2) (BulletKit growth medium, Lonza #CC-3162) and until differentiation (6-12 more days). After 1-4 days in EGM2 media the cells were incubated with test agents (or positive controls) for 2-3 days (from day −3 or −2 to day 0). Rosiglitazone (1 μM) and rhBMP7 (6.3 nM) were used as reference agents (positive controls). Then (on day 0) the culture media (containing the test agents or positive controls) was removed, and minimal adipogenic medium (MDM) was added and the cells were left to differentiate of 6-12 days. The MDM media is a modification of the adipogenic media described by Rodriguez et al., and contains: DMEM/Ham's F-12 50/50 Mix (3.151 g/1, 17.5 mM D-glucose, 3.651 g/l L-glutamine) (Cellgro #10-090-CV), 5 μg/ml (0.86 μM) insulin, 1 μM dexamethasone, 100 μM 3-isobutyl-1-methylxanthine, 0.2 nM 3,3′,5-triiodo-L-thyronine, 10 μg/ml (127 nM) transferrin, and 1% penicillin-streptomycin. Adipocyte scores were determined by light microscopy and defined as the number of cells, on a per well basis, that contain multilocular lipid droplets, at the end of the differentiation of the cells, approximately 6 to 12 days following the end of compound treatment and switch into MDM media.
Total RNA was prepared from cells using PureLink RNA Isolation Kit (Invitrogen #12183-016). Alternatively, cells were simply lyzed by freezing (−80° C.). First strand cDNA were synthesized using the High Capacity cDNA Reverse Transcription kit (Applied Biosystems, Foster City, Calif.) and random primers.
Quantitative real-time PCR was performed using an Applied Biosystems StepOnePlus™ instrument, TaqMan Gene Expression Master Mix (Applied Biosystems #4369016), and custom TaqMan gene expression probes and primers for human uncoupling protein-1 “UCP1” (GenBank NM_021833) and for human peptidylprolyl isomerase A “cyclophilin A” (GenBank NM_021130).
Cyclophilin A was used as a control to account for any variations due to the efficiency of reverse transcription. Arbitrary units were determined by normalizing target mRNA levels to cyclophilin A mRNA levels (based on Cts).

CD34+ cells [2] = experiment: Light microscopy of CD34+ cells for brown adipocyte differentiation (multilocular lipid-containing cells); type: cell-based, human; conditions: CD34+ cells 6 days following the end of compound treatment and switch into MDM media
Procedure: as §1
Pictures of cells were taken using a hand-held digital camera (Nikon Coolpix 950) and inverted microscope (Nikon TMS) used for cell culture observations; images were optimized using Paint.net version 4.0 functions for Auto-Level Brightness and Contrast.

DIO mice = experiment: DIO mouse study of metabolic health, once-daily oral gavage for 28 to 56 days; type: in vivo, C57Bl/6 mice; conditions: oral gavage once a day, bezafibrate 60 mg/kg, oxaprozin 50 mg/kg, vs vehicle
Procedure: Obesity and insulin resistance, an early stage in the development of type 2 diabetes (or pre-diabetes), was induced in C57Bl/6 mice by feeding the mice with a high fat diet (Research diet, Cat #D12492, 60/a fat kcal) for 12 weeks starting at 6 weeks of age. The mice were maintained at 22-23° C. with abundant bedding material, maintaining the animals in an environmental temperature close to their thermoneutrality, starting 2 weeks prior to the dosing period and for the full dosing period with a 12 h/12 h light/dark cycle.
Mice were dosed once per day by oral gavage (200 μl per mouse), first for 3 days with the vehicle (PBS+0.5% CMC+0.1% Tween-80) as acclimation for running into the study, then with either vehicle alone or testing material dissolved in the vehicle for […] (4 to 8 weeks).
Body weight was recorded every 3 days, body composition (fat and lean mass with EchoMRI) was assessed at the end of the study (University of Cincinnati Mouse Metabolic Phenotyping Center), blood glucose level (measured with a glucometer) was monitored 3-5 days before (baseline) and at the end of the dosing period.
At the end of the dosing period, animals were fasted for 6 hours and euthanized by CO2, blood was collected, and plasma was isolated and saved at −20° C. Plasma glucose, insulin and leptin levels were assessed 3-5 days before (baseline) and at the end of the dosing period (mice were fasted for 6 hours before all plasma collection) (University of Cincinnati Mouse Metabolic Phenotyping Center). Insulin sensitivity was determined using the homeostasis model assessment of insulin resistance (HOMA-IR). HOMA-IR=(plasma insulin [microIU/ml] x plasma glucose [mM])/22.5.
The mice were maintained on a high fat diet (60% calories from fat) throughout the study. An overnight fast was performed the last night of the study in preparation for glucose tolerance testing.

CD34+ cells [3] = experiment: Quantification of UCP1 protein by fluorescence immunohistochemistry (IHC); type: cell-based, human
Procedure: Culturing and differentiation of CD34+ cells into brown adipocytes were performed using adipogenic differentiation medium lacking (Minimal Differentiation Medium, MDM) or containing 1 μM rosiglitazone (Reference Differentiation Medium, RDM). After 15 days of differentiation cells were fixed with 4% Paraformaldehyde PBS pH 7.4, and incubated with a UCP1 antibody (Abcam ab23841) and Alexafluor 488 goat anti-rabbit antibody to quantify relative UCP1 levels (green) according to standard protocols. Prior to fixation of cells, nuclei were labeled with 5 μM DAPI (blue) for 10 minutes. Each treatment condition was evaluated in triplicate in a 96-well plate corresponding to approximately 360-480 cells for each data point in total. The InCell 1000 Developer Toolbox software was used to develop an automated cell detection script to measure UCP1 signal intensity, using the nuclei and cytoplasm detection algorithms. As a readout, total intensity of UCP1 signal within the cell was used, normalized to cell number.

| Molecule | differentiation of brown adipocyte progenitor cells into brown adipocytes, as indicated by expression of UCP1 and PPARγ2 [1] | brown adipocyte formation by light microscopy (CD34+ cells [2]) | body fat mass (DIO mice; MRI) | body weight (DIO mice) | glycemia (DIO mice) | insulin resistance index (HOMA-IR) (DIO mice) | plasma insulin (DIO mice) | plasma leptin (DIO mice) | agents identified by quantification of UCP1 protein by fluorescence IHC (CD34+ cells [3]) | recruitment of brown adipocytes ([1]; CD34+ cells, rosiglitazone 1 μM, BMP7 6 nM (most effective individual concentrations), day −3 to d0) | response of the UCP1/PPARγ2 RT-PCR assay to positive controls ([1]; positive controls) |
| --- | --- | --- | --- | --- | --- | --- | --- | --- | --- | --- | --- |
| CC(C)(Oc1ccc(CCNC(=O)c2ccc(Cl)cc2)cc1)C(=O)O [bezafibrate, 2-(4-{2-[(4-chlorobenzoyl)amino]ethyl}phenoxy)−2-methylpropanoic acid] | promote the differentiation of brown adipocyte progenitor cells into brown adipocytes | promote brown adipocyte formation | significant decreases | significant decreases | significant decreases | significant decreases | significant decreases | significant decreases | – | – | – |
| O=C(O)c1cc(-c2ccc(F)cc2F)ccc1O [diflunisal, Diflunisal] | promote the differentiation of brown adipocyte progenitor cells into brown adipocytes | promote brown adipocyte formation | – | – | – | – | – | – | identified using this technique | – | – |
| CCCN(CCC)S(=O)(=O)c1ccc(C(=O)O)cc1 [probenecid, Probenecid] | promote the differentiation of brown adipocyte progenitor cells into brown adipocytes | promote brown adipocyte formation | – | – | – | – | – | – | identified using this technique | – | – |
| B1 | – | promote brown adipocyte formation | – | – | – | – | – | – | – | robustly increase the recruitment of brown adipocytes | appropriate dose-responsive behavior |
